Assay results published in patent US7739055B2, “Methods and systems for generating and evaluating peptides” (priority 2005, dated 2010).
Like-named read-outs stand apart in the source and are kept apart here.

What was measured:
[1] = tested on: B. cereus
[2] = tested on: Escherichia coli; conditions: first concentration that prohibits growth by OD at 24 hours; Table 1
[3] = first concentration that prohibits growth by OD at 24 hours, Table 1

Row | Sequence | MIC B. cereus [1, 3] | MIC E. coli [2] | MIC B. cereus [1]
1 | FVGSLASKVVPSVFGAIKTK [Peptide 82] | + (MIC greater than 256 ug/mL) | + (MIC greater than 256 ug/mL) | 
2 | GAVFGVASKVVPSVFSAIKK [Peptide 84] | + (MIC greater than 256 ug/mL) | + (MIC greater than 256 ug/mL) | 
3 | GLKKDALQSIVKKAQLAAMG [Shuffled 9] | + (MIC greater than 256 ug/mL) | + (MIC greater than 256 ug/mL) | 
4 | GVSSPIVAVKFKGAVASLIK [Shuffled 6] | + (MIC greater than 256 ug/mL) | + (MIC greater than 256 ug/mL) | 
5 | GVVGKLASKVVPSVFGSFTK [Peptide 34] | + (MIC greater than 256 ug/mL) | + (MIC greater than 256 ug/mL) | 
6 | HTGRSGPATGHSGHSSTHGS [Peptide 86] | + (MIC greater than 256 ug/mL) | + (MIC greater than 256 ug/mL) | 
7 | IASAVPVCVKGKISKSYISV [Shuffled 44] | + (MIC greater than 256 ug/mL) | + (MIC greater than 256 ug/mL) | 
8 | KFDPLEGAPMARGIVLEKVG [Peptide 74] | + (MIC greater than 256 ug/mL) | + (MIC greater than 256 ug/mL) | 
9 | KGRGKQGGKVRAKAKTRSS [Parasin] | + (MIC greater than 256 ug/mL) | + (MIC greater than 256 ug/mL) | 
10 | KIVKVITVKSISPASLVPVF [Shuffled 83] | ++ (MIC greater than 128 ug/mL, not sufficiently soluble to test as 256 ug/mL) | ++ (MIC greater than 128 ug/mL, not sufficiently soluble to test as 256 ug/mL) | 
11 | KSPFVLVVSSRVAAVIKSLP [Shuffled 25] | + (MIC greater than 256 ug/mL) | + (MIC greater than 256 ug/mL) | 
12 | KTVPVVLKASIKVSSAGFGF [Shuffled 82] | + (MIC greater than 256 ug/mL) | + (MIC greater than 256 ug/mL) | 
13 | KVGKGSYPCSFVKVVAKVSV [Shuffled 85] | + (MIC greater than 256 ug/mL) | + (MIC greater than 256 ug/mL) | 
14 | KVYVVKIAVPCFPKSARSVS [Shuffled 29] | + (MIC greater than 256 ug/mL) | + (MIC greater than 256 ug/mL) | 
15 | KYGPALVIAVKKSCSLTFRA [Shuffled 23] | + (MIC greater than 256 ug/mL) | + (MIC greater than 256 ug/mL) | 
16 | LGVVGSLASKVVPAVISKVK [Peptide 57] | + (MIC greater than 256 ug/mL) | + (MIC greater than 256 ug/mL) | 
17 | LPAVFKLASKVVPSVFGLVK [Peptide 42] | + (MIC greater than 256 ug/mL) | + (MIC greater than 256 ug/mL) | 
18 | LPVLFSSAIAKVGIKLGAKV [Shuffled 96] | + (MIC greater than 256 ug/mL) | + (MIC greater than 256 ug/mL) | 
19 | LPVVFKIASKVVPSVISKIT [Peptide 83] | + (MIC greater than 256 ug/mL) | + (MIC greater than 256 ug/mL) | 
20 | LSAVGKIASKVVPSVIGAFK [Peptide 6] | + (MIC greater than 256 ug/mL) | + (MIC greater than 256 ug/mL) | 
21 | LYSPTCVKAAVSRFIGKVSA [Shuffled 15] | + (MIC greater than 256 ug/mL) | + (MIC greater than 256 ug/mL) | 
22 | MKSIAKFIAKTVAKQGAKQG [Peptide 39] |  | + (MIC greater than 256 ug/mL) | + (key: +: MIC greater than 256 ug/mL; ++: MIC greater than 128 ug/mL, not sufficiently soluble to test as 256 ug/mL)
23 | MVVFSVPKFKSTVAKLLSSA [Shuffled 1] | + (MIC greater than 256 ug/mL) | + (MIC greater than 256 ug/mL) | 

Row | Sequence | MIC B. cereus [1, 3] | MIC E. coli [2] | MIC B. cereus [1]
24 | PKVVGLSIVVVKAKVSSALG [Shuffled 57] | + (MIC greater than 256 ug/mL) | + (MIC greater than 256 ug/mL) | 
25 | PSLLYKAKAVFCKPSAVAVF [Shuffled 62] | ++ (MIC greater than 128 ug/mL, not sufficiently soluble to test as 256 ug/mL) | ++ (MIC greater than 128 ug/mL, not sufficiently soluble to test as 256 ug/mL) | 
26 | PVIGKLASKVVPSVFSMIKR [Peptide 7] | + (MIC greater than 256 ug/mL) | + (MIC greater than 256 ug/mL) | 
27 | PVVFSVASKVVPSLISALKR [Peptide 25] |  | + (MIC greater than 256 ug/mL) | + (key: +: MIC greater than 256 ug/mL; ++: MIC greater than 128 ug/mL, not sufficiently soluble to test as 256 ug/mL)
28 | PVVGRVASKVFPAVIGLVKK [Peptide 45] | + (MIC greater than 256 ug/mL) | + (MIC greater than 256 ug/mL) | 
29 | PYSLKNGENWLLSEEIIRYP [Peptide 50] | + (MIC greater than 256 ug/mL) | + (MIC greater than 256 ug/mL) | 
30 | RKRKSDVDFEAEFELFEDDD [Peptide 19] | + (MIC greater than 256 ug/mL) | + (MIC greater than 256 ug/mL) | 
31 | SALGRLASKVVPAVIGKVTT [Peptide 56] | + (MIC greater than 256 ug/mL) | + (MIC greater than 256 ug/mL) | 
32 | SALGRVASKVFPAVYCSITK [Peptide 15] | + (MIC greater than 256 ug/mL) | + (MIC greater than 256 ug/mL) | 
33 | SAVGKLASKVFPAVFSMVTK [Peptide 31] | + (MIC greater than 256 ug/mL) | + (MIC greater than 256 ug/mL) | 
34 | SAVGSVASKVVPSLISKVTK [Peptide 36] | + (MIC greater than 256 ug/mL) | + (MIC greater than 256 ug/mL) | 
35 | SKFPLAGIFSVPGVKRVVVI [Shuffled 75] | + (MIC greater than 256 ug/mL) | + (MIC greater than 256 ug/mL) | 
36 | SRVPLKSPVKIVGSKVMIFA [Shuffled 7] | + (MIC greater than 256 ug/mL) | + (MIC greater than 256 ug/mL) | 
37 | SSSIPIKMVLVRALVFVKSG [Shuffled 55] | + (MIC greater than 256 ug/mL) | + (MIC greater than 256 ug/mL) | 
38 | STVKVASKLAVVVSPISKGS [Shuffled 36] | + (MIC greater than 256 ug/mL) | + (MIC greater than 256 ug/mL) | 
39 | SVIGKIASKVVPSVYCAISK [Peptide 44] | + (MIC greater than 256 ug/mL) | + (MIC greater than 256 ug/mL) | 
40 | SVKPVGSSVVKGTALVKFFG [Shuffled 34] | + (MIC greater than 256 ug/mL) | + (MIC greater than 256 ug/mL) | 
41 | SVKVAKSVIPSAVFAGGKVF [Shuffled 84] | + (MIC greater than 256 ug/mL) | + (MIC greater than 256 ug/mL) | 
42 | SVVFGVASKVVPSVIGKVKT [Peptide 69] | + (MIC greater than 256 ug/mL) | + (MIC greater than 256 ug/mL) | 
43 | TAKVVVFVSFSYVVPKKRAC [Shuffled 2] | + (MIC greater than 256 ug/mL) | + (MIC greater than 256 ug/mL) | 
44 | TLVGVVAKLVATKIGSSPRA [Shuffled 56] | + (MIC greater than 256 ug/mL) | + (MIC greater than 256 ug/mL) | 
45 | VDKGSYLPRPTPPRPIYNRN [Pyrrhocoricin] |  | ++ (MIC greater than 128 ug/mL, not sufficiently soluble to test as 256 ug/mL) | ++ (key: +: MIC greater than 256 ug/mL; ++: MIC greater than 128 ug/mL, not sufficiently soluble to test as 256 ug/mL)
